Reference: PubChem BioAssay (NCI)
Where “and” joins values, the source holds several entries; their conditions need not be identical. Equal entries are not always repeated.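 Tested at 5 concentrations; 48 h exposure; 96-well plates; endpoints linearly interpolated, else capped at highest concentration. GI50 is the concentration that inhibits growth by half. TGI marks complete inhibition of growth.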

Experiments:
Assay in all cases: DTP human tumour cell line panel, 48 h
HCC-2998 colon = test system: HCC-2998 colon
HCT-116 colon = test system: HCT-116 colon
HCT-15 colon = test system: HCT-15 colon
HS 578T breast = test system: HS 578T breast
M14 melanoma = test system: M14 melanoma
MALME-3M melanoma = test system: MALME-3M melanoma
NCI-H226 lung = test system: NCI-H226 lung
RXF 393 renal = test system: RXF 393 renal
SK-MEL-28 melanoma = test system: SK-MEL-28 melanoma
UACC-257 melanoma = test system: UACC-257 melanoma

Row | SMILES | GI50 (HCC-2998 colon) | TGI (HCC-2998 colon) | GI50 (HCT-116 colon) | TGI (HCT-116 colon) | GI50 (HCT-15 colon) | TGI (HCT-15 colon) | GI50 (HS 578T breast) | TGI (HS 578T breast) | GI50 (M14 melanoma) | TGI (M14 melanoma) | GI50 (MALME-3M melanoma) | TGI (MALME-3M melanoma) | GI50 (NCI-H226 lung) | TGI (NCI-H226 lung) | GI50 (RXF 393 renal) | TGI (RXF 393 renal) | GI50 (SK-MEL-28 melanoma) | TGI (SK-MEL-28 melanoma) | GI50 (UACC-257 melanoma) | TGI (UACC-257 melanoma)
1 | C=C1C(=O)O[C@H]2[C@H]1CC/C(Cn1cc(-c3cccc(Cl)c3)nn1)=C\CC[C@@]1(C)O[C@@H]21 | 1.64 µM | 3.29 µM | 0.163 µM | 0.377 µM | 0.192 µM | 0.479 µM | 2.26 µM | 5.56 µM | 0.798 µM | 2.2 µM | 1.2 µM | 2.92 µM | 1.71 µM | 3.75 µM | 0.558 µM | 1.85 µM | 0.351 µM | 1.27 µM | 1.42 µM | 2.8 µM
2 | CC(C)(C)NC(=O)[C@H]1CC[C@H]2[C@@H]3CC[C@H]4NC(=O)C=C[C@]4(C)[C@H]3CC[C@]12C | > 100 µM | > 100 µM | > 100 µM | > 100 µM | > 100 µM | > 100 µM | > 100 µM | > 100 µM | > 100 µM | > 100 µM | 74.5 µM and > 100 µM | > 100 µM | > 100 µM | > 100 µM | > 100 µM | > 100 µM | > 100 µM | > 100 µM | 48.3 µM and > 100 µM | > 100 µM
3 | NC(=O)CC1(O)C=C(Br)C(=O)C(Br)=C1 | 18.2 µM | 33 µM | 0.392 µM | 10.7 µM | 2.65 µM | 7.75 µM | 17.8 µM | 46 µM | 2.64 µM | > 32.8 µM | 2.12 µM | 4.36 µM | 20.5 µM | 46.3 µM | 1.9 µM | 4.05 µM | 1.87 µM | 3.7 µM | 1.9 µM | 4.06 µM
4 | O=C(COc1ccc(OCC(=O)N2C(=O)CN(c3ccccc3)C2=S)cc1)N1C(=O)CN(c2ccccc2)C1=S | > 25 µM | > 100 µM | > 25 µM | > 100 µM | > 25 µM | > 100 µM | > 25 µM | > 100 µM | > 25 µM | > 100 µM | 36.7 µM | > 100 µM | – | > 100 µM | > 25 µM | > 100 µM | > 25 µM | > 100 µM | > 25 µM | > 100 µM
5 | COc1c(O)cc2c(c1O)C(=O)C1=C(CCCC1)C2=O | – | 47.7 µM | – | 43.2 µM | – | > 100 µM | – | 97.1 µM | – | > 100 µM | – | 69.3 µM | – | > 100 µM | – | 45 µM | – | 62 µM | – | 81.2 µM
6 | O=C(CCl)Nc1cc(Cl)c(Cl)cc1Cl | – | > 10 µM | – | 2.94 µM | – | 4.3 µM | – | 8.56 µM | – | 2.96 µM | – | 2.88 µM | – | 2.48 µM | – | 4.58 µM | – | 4.04 µM | – | 3.24 µM
7 | NC(Cc1c[nH]c2ccc(F)cc12)C(=O)O (centres undefined) | 1810 µM | > 2500 µM | 853 µM | > 2500 µM | 1180 µM | > 2500 µM | 506 µM | 1590 µM | 643 µM | > 2500 µM | 490 µM | 1130 µM | 626 µM | > 2500 µM | 887 µM | > 2500 µM | 795 µM | > 2500 µM | 475 µM | 1220 µM
